Data set [1] has as its target T1, human 5-HT transporters (SERT) (Homo sapiens, UniProt P31645).
T1 construct: expressed in transfected cells; host or cells: CHO cells (membrane homogenate)
The data set is described as follows: Affinity to CHO cells-transfected human-derived 5-HT transporter ([3H]imipramine binding). The note with it: 2 nM [3H]imipramine, CHO cell membrane homogenate, 22°C, 60 min. How it is done:
To a mixed system of cell membrane homogenate protein (12 μg), 2 nM of [^3H] imipramine and buffer solution (50 mM of Tris-HCl (pH 7.4), 120 mM of NaCl, 0.5 mM of KCl and 0.1% BSA) was added or not added the test compound at 22° C., and then the resulting mixture was incubated for 60 minutes.
To the mixed system mentioned above was added 10 μM of imipramine for measuring nonspecific binding values.
After incubation, the samples were filtered rapidly in vacuo with a 96-sample cell harvester (Unifilter, Packard) through glass-fiber filters (GF/B, Packard) pre-soaked with 0.3% PEI and rinsed several times with an ice-cold 50 mM of Tris-HCl and 150 mM of NaCl. The filters were dried and the retained radioactivity was measured by means of a scintillation counter (Topcount, Packard) using a scintillation cocktail (Microscint O, Packard). Each experimental result was expressed as a percentage inhibition of radioactive ligand specific binding relative to control groups.
The standard reference compound was imipramine, and ICso values were calculated by the competitive curve obtained from a series of concentrations of the experimental test. The experimental results of the affinity of the compounds disclosed herein to human 5-HT transporters (SERT) were listed in Table A.

In data set [2] the target is T2, 5-HT1A receptors (Homo sapiens, UniProt P08908).
T2 construct: host or cells: human HEK-293 cell homogenates
T2 sequence (P08908 1-422): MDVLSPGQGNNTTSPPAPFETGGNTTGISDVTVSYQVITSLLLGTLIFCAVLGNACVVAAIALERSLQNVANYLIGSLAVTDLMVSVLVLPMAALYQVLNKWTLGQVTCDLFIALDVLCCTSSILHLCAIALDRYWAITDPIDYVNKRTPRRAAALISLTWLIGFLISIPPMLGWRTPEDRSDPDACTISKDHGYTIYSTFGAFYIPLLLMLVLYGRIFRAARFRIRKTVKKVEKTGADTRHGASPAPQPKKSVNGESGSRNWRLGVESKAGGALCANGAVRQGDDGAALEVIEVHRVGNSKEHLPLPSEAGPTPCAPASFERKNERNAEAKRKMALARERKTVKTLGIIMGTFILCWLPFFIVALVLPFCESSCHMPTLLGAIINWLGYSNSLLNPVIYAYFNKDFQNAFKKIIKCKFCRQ
The data set is described as follows: h5-HT1A binding affinity test ([3H]8-OH-DPAT, HEK-293 cell homogenates). The note with it: 0.3 nM [3H]8-OH-DPAT, 22°C, 60 min, Ki from IC50 by ChengPrusoff equation. How it is done: Human HEK-293 cell homogenates (36 μg of protein) were incubated at 22° C. for 60 minutes with 0.3 nM of [^3H]8-OH-DPAT (Perkin-Elmer) in the absence or presence of the test compound in a buffer solution containing 50 mM of Tris-HCl (pH 7.4), 10 mM of MgSO4, 0.5 mM of EDTA and 2 μg/mL aprotinine.
The non-specific binding value was determined by incubating the same mixture in the presence of 10 μM of 8-OH-DPAT, which was used as the standard reference compound. Competitive curve was obtained by testing data of 8-OH-DPAT in each experiment at several concentrations.
The incubated samples were filtered fastly using a 96-sample cell harvester (Unifilter, Packard) through fiberglass filter membranes (GF/B, Packard) pre-soaked with 0.3% PEI in vacuo, and washed several times with an ice cold 50 mM of Tris-HCl. The filter membranes were dried and the retained radioactivity was measured in a scintillation counter (Topcount, Packard) using a scintillation cocktail (Microscint 0, Packard). The experimental results were expressed as inhibition percentage of radioactive ligand specific binding relative to control groups.
The experiments of combining [^3H]8-OH-DPAT (0.3 nM) with 5-HT1A receptors of human HEK-293 cells were accomplished by using Scintillation Proximity Assay on membrane. The test compounds were required to be tested at least three times in the case of a concentration of more than 6 log, and the data were analyzed by the method of nonlinear regression using Hill equation curve to obtain an IC50 value, and then the IC50 value was calculated by ChengPrusoff equation to obtain a Ki value.

Data set [3] in a line: Pharmacokinetic evaluation in rats after intravenous or gavage administration. It counts as in vivo, SD rats. The settings on record: for AUC(0-inf) / AUC(0-t) / Cmax / Tmax / clearance / half-life / Vd: SD, rat, plasma; for Vd: read-out: Vss. How it is done: The pharmacokinetic evaluation of the compound disclosed herein in rats, dogs and monkeys was carried out in this invention, and animal information as described in Table 1.
The compounds disclosed herein were administered in form of a saline solution containing 5% DMSO, 5% Kolliphor HS 15, 2% (2% HCl) and 88% Saline, or a physiological saline solution containing 10% DMSO, 10% Kolliphor HS 15 and 80% physiological saline to an animal subject. The animals of the intravenous administration group were administered at a dose of 1 mg/kg, and 0.3 mL of vein blood samples were collected at the time points of 0, 0.083, 0.25, 0.5, 1.0, 2.0, 5.0, 7.0 and 24 h after drug administration, then each blood sample was processed to separate plasma by centrifugation at 3000 rpm or 4000 rpm for 10 minutes, and the plasma samples were collected and stored at −20° C. or −70° C. The animals of the gavage administration group were administered at a dose of 2.5 mg/kg, and 0.3 mL of vein blood samples were collected at the time points of 0, 0.083, 0.25, 0.5, 1.0, 2.0, 5.0, 7.0 and 24 h after drug administration, then each blood sample was processed to separate plasma by centrifugation at 3000 rpm or 4000 rpm for 10 minutes, and the plasma samples were collected and stored at −20° C. or −70° C.
The above plasma was analyzed by the LC/MS/MS system.
The LC/MS/MS system for the analysis comprises an Agilent 1200 Series Vacuum Degasser, binary syringe pumps, a well-plate autosampler, a column oven and an Agilent G6430A Triple Quadrupole Mass Spectrometer equiped with an electrospray ionization (ESI) source.
Analysis was performed on waters XBridge C18 (2.1×50 mm, […] column, and 5 μL of sample was injected). Conditions of the analysis comprise: a mobile phase consisting of mobile phase A (water, 2 mM ammonium formate and 0.1% formic acid) and mobile phase B (methanol, 2 mM ammonium formate and 0.1% formic acid). A flow rate of 0.4 mL/min.

Experimental findings from US10316025B2, “Substituted piperazine compounds and methods of use and use thereof” (SUNSHINE LAKE PHARMA CO., LTD., priority 2015, dated 2019) are described below.

T1 sequence (P31645 whole entry): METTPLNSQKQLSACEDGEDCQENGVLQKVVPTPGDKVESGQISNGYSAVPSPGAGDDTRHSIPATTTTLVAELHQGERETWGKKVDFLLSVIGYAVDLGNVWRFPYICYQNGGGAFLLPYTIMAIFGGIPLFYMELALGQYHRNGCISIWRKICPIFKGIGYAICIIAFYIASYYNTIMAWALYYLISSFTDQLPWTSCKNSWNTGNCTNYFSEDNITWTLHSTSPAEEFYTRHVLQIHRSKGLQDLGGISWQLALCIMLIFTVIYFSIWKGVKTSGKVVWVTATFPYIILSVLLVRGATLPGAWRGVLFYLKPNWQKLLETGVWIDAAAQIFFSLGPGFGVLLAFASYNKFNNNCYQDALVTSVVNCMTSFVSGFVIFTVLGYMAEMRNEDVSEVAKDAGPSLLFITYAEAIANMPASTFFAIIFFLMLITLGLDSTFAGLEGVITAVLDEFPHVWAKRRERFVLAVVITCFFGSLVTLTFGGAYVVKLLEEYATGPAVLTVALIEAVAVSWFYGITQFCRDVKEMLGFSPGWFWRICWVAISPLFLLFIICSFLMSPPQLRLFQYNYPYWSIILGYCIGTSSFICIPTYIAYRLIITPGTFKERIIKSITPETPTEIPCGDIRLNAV

In turn, `N#Cc1ccc2[nH]cc(CCCCN3CCN(c4ncc(-c5cccc(C(N)=O)c5)cn4)CC3)c2c1` [Example 1, 3-(2-(4-(4-(5-cyano-1H-indol-3-yl)butyl)piperazin-1-yl)pyrimidin-5-yl)benzamide] registered a half-inhibitory concentration (IC50) in data set [1] of 0.86 nM. In data set [2], this molecule registered an inhibition constant (Ki) of 2.87 nM.

`N#Cc1ccc2[nH]cc(CCCN3CCN(c4ncc(-c5cccc(C(N)=O)c5)cn4)CC3)c2c1` [Example 2, 3-(2-(4-(3-(5-cyano-1H-indol-3-yl)propyl)piperazin-1-yl)pyrimidin-5-yl) benzamide] displayed an IC50 in data set [1] of 0.35 nM. Besides, in data set [2], affinity was put at a Ki of 1.21 nM. Besides, in data set [3] (iv, 1 mg/kg), the total exposure AUC(0-inf) is 753 ng·h/mL, the AUC(0-t) is 722 ng·h/mL, the peak level (Cmax) was 409 ng/mL and the time to peak (Tmax) amounted to 0.083 h. In data set [3] (iv, 1 mg/kg), the clearance was found to be 22.9 mL/min/kg, the half-life was 1.59 h and the Vd turned out to be 2.33 L/kg. Further, in data set [3] (po, 2.5 mg/kg), the total exposure AUC(0-inf) turned out to be 767 ng·h/mL, the AUC(0-t) turned out to be 706 ng·h/mL, the highest level (Cmax) was 241 ng/mL and the Tmax is 0.833 h. Besides, in data set [3] (po, 2.5 mg/kg), the half-life is 1.95 h and the F is listed as 39.2%.

As to `N#Cc1ccc2[nH]cc(CCCCN3CCN(c4ncc(-c5ccc(C(N)=O)cc5)cn4)CC3)c2c1` [Example 5, 4-(2-(4-(4-(5-cyano-1H-indol-3-yl)butyl)piperazin-1-yl)pyrimidin-5-yl)benzamide], the IC50 in data set [1] was 0.79 nM. For the same molecule, affinity in data set [2] was put at a Ki of 8.42 nM.

In data set [1], `N#Cc1ccc2[nH]cc(CCCN3CCN(c4ncc(-c5ccc(C(N)=O)cc5)cn4)CC3)c2c1` [Example 6, 4-(2-(4-(3-(5-cyano-1H-indol-3-yl)propyl)piperazin-1-yl)pyrimidin-5-yl) benzamide] came in with a half-inhibitory concentration (IC50) of 0.93 nM. The same molecule gave a Ki in data set [2] of 4.13 nM.

In turn, `N#Cc1ccc2[nH]cc(CCCCN3CCN(c4ncc(-c5ccc(F)cc5)cn4)CC3)c2c1` [Example 7, 3-(4-(4-(5-(4-fluorophenyl)pyrimidin-2-yl)piperazin-1-yl)butyl)-1H-indole-5-carbonitrile] gave a half-maximal inhibitory concentration (IC50) in data set [1] of 0.88 nM. For the same molecule, the affinity in data set [2], expressed as Ki, was 3.7 nM. Further, in data set [3] (iv, 1 mg/kg), the AUC(0-inf) amounted to 1030 ng·h/mL, the AUC(0-t) is 1010 ng·h/mL, the Cmax turned out to be 299 ng/mL and the Tmax stood at 0.139 h. Moreover, in data set [3] (iv, 1 mg/kg), the clearance is 16.7 mL/min/kg, the half-life is 4.64 h and the Vd amounted to 5.03 L/kg. Moreover, in data set [3] (po, 2.5 mg/kg), the AUC(0-inf) was determined as 2010 ng·h/mL, the exposure AUC(0-t) was determined as 1960 ng·h/mL, the highest level (Cmax) was 194 ng/mL and the Tmax came out at 2.67 h. Also, in data set [3] (po, 2.5 mg/kg), the half-life is 4.37 h and the F is given as 78.1%.

Molecule `N#Cc1ccc2[nH]cc(CCCN3CCN(c4ncc(-c5ccc(F)cc5)cn4)CC3)c2c1` [Example 8, 3-(3-(4-(5-(4-fluorophenyl)pyrimidin-2-yl)piperazin-1-yl)propyl)-1H-indole-5-carbonitrile] returned an IC50 in data set [1] of 1.3 nM. The molecule further gave a Ki in data set [2] of 1.9 nM. In data set [3] (iv, 1 mg/kg), the AUC(0-inf) worked out at 1250 ng·h/mL, the AUC(0-t) was found to be 1180 ng·h/mL, the peak concentration (Cmax) amounted to 195 ng/mL and the Tmax was 0.139 h. Also, in data set [3] (iv, 1 mg/kg), the clearance turned out to be 13.4 mL/min/kg, the half-life was 5.85 h and the Vd was found to be 6.01 L/kg. For the same molecule, in data set [3] (po, 2.5 mg/kg), the AUC(0-inf) stood at 2070 ng·h/mL, the AUC(0-t) is 2140 ng·h/mL, the highest level (Cmax) was 180 ng/mL and the Tmax stood at 4 h. In addition, in data set [3] (po, 2.5 mg/kg), the half-life is 4.85 h and the F is 68.48%.

Molecule `COc1ccccc1-c1cnc(N2CCN(CCCCc3c[nH]c4ccc(C#N)cc34)CC2)nc1` [Example 9, 3-(4-(4-(5-(2-methoxyphenyl)pyrimidin-2-yl)piperazin-1-yl)butyl)-1H-indole-5-carbonitrile] yielded an IC50 in data set [1] of 1 nM. Also, the affinity in data set [2] corresponds to a Ki of 2.7 nM.

`COc1ccccc1-c1cnc(N2CCN(CCCc3c[nH]c4ccc(C#N)cc34)CC2)nc1` [Example 10]: in data set [1], the IC50 was determined as 0.84 nM. Affinity in data set [2] was put at a Ki of 3.4 nM.

With `N#Cc1ccc2[nH]cc(CCCCN3CCN(c4ncc(-c5ccc(Cl)cc5)cn4)CC3)c2c1` [Example 11, 3-(4-(4-(5-(4-chlorophenyl)pyrimidin-2-yl)piperazin-1-yl)butyl)-1H-indole-5-carbonitrile], the IC50 in data set [1] was found to be 1.6 nM. In data set [2], this molecule returned a Ki of 13 nM.

Molecule `N#Cc1ccc2[nH]cc(CCCN3CCN(c4ncc(-c5ccc(Cl)cc5)cn4)CC3)c2c1` [Example 12, 3-(3-(4-(5-(4-chlorophenyl)pyrimidin-2-yl)piperazin-1-yl)propyl)-1H-indole-5-carbonitrile] gave a 50% inhibitory concentration (IC50) in data set [1] of 0.32 nM. In data set [2], this molecule showed a Ki of 5.5 nM. In addition, in data set [3] (iv, 1 mg/kg), the total exposure AUC(0-inf) worked out at 2240 ng·h/mL, the exposure AUC(0-t) stood at 1870 ng·h/mL, the peak level (Cmax) was 444 ng/mL and the Tmax came out at 0.083 h. Further, in data set [3] (iv, 1 mg/kg), the clearance was 7.5 mL/min/kg, the half-life is 9.52 h and the Vd stood at 5.46 L/kg. Moreover, in data set [3] (po, 2.5 mg/kg), the area under the curve AUC(0-t) was determined as 2950 ng·h/mL, the concentration peaked (Cmax) at 207 ng/mL, the time to peak (Tmax) came to 5.67 h and the F is listed as 52.62%.

Regarding `COc1cc(F)ccc1-c1cnc(N2CCN(CCCCc3c[nH]c4ccc(C#N)cc34)CC2)nc1` [Example 15, 3-(4-(4-(5-(4-fluoro-2-methoxyphenyl)pyrimidin-2-yl)piperazin-1-yl)butyl)-1H-indole-5-carbonitrile], the concentration for half-maximal inhibition (IC50) in data set [1] stood at 0.96 nM. In addition, the inhibition constant (Ki) in data set [2] worked out at 11 nM.

Consider `COc1cc(F)ccc1-c1cnc(N2CCN(CCCc3c[nH]c4ccc(C#N)cc34)CC2)nc1` [Example 16, 3-(3-(4-(5-(4-fluoro-2-methoxyphenyl)pyrimidin-2-yl)piperazin-1-yl)propyl)-1H-indole-5-carbonitrile], for which the IC50 in data set [1] turned out to be 0.87 nM. The molecule further registered an inhibition constant (Ki) in data set [2] of 7.1 nM.
